Experimental data published in patent US20030191279A1, “Urea derivatives useful as anticancer agents” (priority 1999, published 2003).

Row | Structure (SMILES) | melting point
1 | O=C(NCC(=O)N(Cc1ccccc1)[C@@H]1c2ccccc2CC[C@H]1Cc1ccccc1)Nc1cccc(C(=O)O)c1 (relative stereo) [Example 1, trans-3-(3-{[Benzyl-(2-benzyl-1,2,3,4-tetrahydro-naphthalen-1-yl)-carbamoyl]-methyl}-ureido)-benzoic acid] | > 250 °C
2 | O=C(NCC(=O)N(Cc1ccccc1)[C@@H]1c2ccccc2CC[C@H]1Cc1ccccc1)Nc1cccc(C(=O)Nc2nnn[nH]2)c1 (relative stereo) [Example 3, trans-3-(3-{[Benzyl-(2-benzyl-1,2,3,4-tetrahydro-naphthalen-1-yl)-carbamoyl]-methyl}-ureido)-N-(1H-tetrazol-5-yl)-benzamide] | 155 °C (dec.)
3 | O=C(NCC(=O)N(Cc1ccccc1)[C@@H]1c2ccccc2CC[C@H]1Cc1ccccc1)c1cccc(-c2nnn[nH]2)c1 (relative stereo) [Example 4, trans-N-{[Benzyl-(2-benzyl-1,2,3,4-tetrahydro-naphthalen-1-yl)-carbamoyl]-methyl}-3-(1H-tetrazol-5-yl)-benzamide] | 119 °C (dec.)
4 | COc1ccccc1CN(C(=O)CNC(=O)Nc1cccc(C(=O)O)c1)[C@@H]1c2ccccc2CC[C@H]1Cc1ccccc1 (relative stereo) [Example 11, trans-3-(3-{[(2-Benzyl-1,2,3,4-tetrahydro-naphthalen-1-yl)-(2-methoxy-benzyl)-carbamoyl]-methyl}-ureido)-benzoic acid] | 117 °C
5 | O=C(NCC(=O)N(Cc1cccs1)[C@@H]1c2ccccc2CC[C@H]1Cc1ccccc1)Nc1cccc(C(=O)O)c1 (relative stereo) [Example 13, trans-3-(3-{[(2-Benzyl-1,2,3,4-tetrahydro-naphthalen-1-yl)-thiophen-2-ylmethyl-carbamoyl]-methyl}-ureido)-benzoic acid] | 196 to 198 °C
6 | O=C(NCC(=O)N(Cc1ccccc1)[C@@H]1CCCC[C@H]1Cc1ccccc1)Nc1cccc(C(=O)O)c1 (relative stereo) [Example 14, trans-3-(3-{[Benzyl-(2-benzyl-cyclohexyl)-carbamoyl]-methyl)-ureido)-benzoic Acid] | 160 to 162 °C

Next, values leading:

Row | melting point | Structure (SMILES)
7 | 130 °C | CCN(C(=O)CNC(=O)Nc1cccc(C(=O)O)c1)[C@@H]1c2ccccc2CC[C@H]1Cc1ccccc1 (relative stereo) [Example 16, trans-3-(3-{[(2-Benzyl-1,2,3,4-tetrahydro-naphthalen-1yl)-ethyl-carbamoyl]-methyl}-ureido)-benzoic acid]
8 | 194 to 195 °C | O=C(NCC(=O)N(Cc1nccs1)[C@@H]1c2ccccc2CC[C@H]1Cc1ccccc1)Nc1cccc(C(=O)O)c1 (relative stereo) [Example 17, trans-3-(3-{[(2-Benzyl-1,2,3,4-tetrahydro-naphthalen-1-yl)-thiazol-2-ylmethyl-carbamoyl]-methyl}-ureido)-benzoic acid]
9 | 130 °C | COc1ccccc1C[C@@H]1CCc2ccccc2[C@H]1N(Cc1ccccc1)C(=O)CNC(=O)Nc1cccc(C(=O)O)c1 (relative stereo) [Example 18, trans-3-[3-({Benzyl-[2-(2-methoxy-benzyl)-1,2,3,4-tetrahydro-naphthalen-1-yl]-carbamoyl}-methyl)-ureido]-benzoic acid]
10 | 120 °C | O=C(O)c1cc(C(=O)NCC(=O)N(Cc2ccccc2)[C@@H]2CCCC[C@H]2Cc2ccccc2)ncn1 (relative stereo) [Example 20, trans-6-({[Benzyl-(2-benzyl-cyclohexyl)-carbamoyl]-methyl}-carbamoyl)-pyrimidine-4-carboxylic acid]
